Assay results reported in ChEMBL document CHEMBL2396614, “Affinity-based screening of MDM2/MDMX-p53 interaction inhibitors by chemical array: identification of novel peptidic inhibitors” (Bioorg Med Chem Lett, 2013).
pEC50, pIC50: −log10 of the molar value. Residues, ends and D or L forms follow the SMILES beside them. *: point of attachment. Mts = Cc1cc(C)c(S(=O)(=O)*)c(C)c1; Npys = O=[N+]([O-])c1cccnc1S*; X1 = COc1ccc(COC(=O)*)cc1; Boc = CC(C)(C)OC(=O)*; OBn = c1ccc(CO*)cc1; X2 = C1CCCC(O*)CC1; NHNH2 = NN*

Key:
[1] = tested on: A549; assay: Growth inhibition of human A549 cells after 72 hrs by MTS assay; format: functional, cell-based; conditions: A549, 72 h
[2] = biological target: T1, Protein Mdm4 (Homo sapiens, UniProt O15151); assay: Inhibition of MDMX (unknown origin) binding to FAM-LTFEHYWAQLTS-NH2 after 30 mins by fluorescence polarization assay
T1 sequence (O15151 whole entry): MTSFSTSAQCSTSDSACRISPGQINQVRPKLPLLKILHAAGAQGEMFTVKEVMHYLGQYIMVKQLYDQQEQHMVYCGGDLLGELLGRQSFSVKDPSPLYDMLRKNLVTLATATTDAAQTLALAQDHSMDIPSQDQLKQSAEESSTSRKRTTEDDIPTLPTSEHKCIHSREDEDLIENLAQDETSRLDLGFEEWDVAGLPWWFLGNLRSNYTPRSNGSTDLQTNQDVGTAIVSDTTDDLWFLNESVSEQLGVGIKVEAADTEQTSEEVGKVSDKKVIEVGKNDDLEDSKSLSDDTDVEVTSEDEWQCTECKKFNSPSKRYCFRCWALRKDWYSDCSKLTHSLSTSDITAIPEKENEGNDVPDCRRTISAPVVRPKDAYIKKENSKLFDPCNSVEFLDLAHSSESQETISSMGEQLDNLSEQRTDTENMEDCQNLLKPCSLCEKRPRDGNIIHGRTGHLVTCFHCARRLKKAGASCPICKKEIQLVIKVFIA

[3] = biological target: E3 ubiquitin-protein ligase Mdm2 (Homo sapiens, UniProt Q00987); assay: Inhibition of MDM2 (unknown origin) binding to FAM-LTFEHYWAQLTS-NH2 after 30 mins by fluorescence polarization assay
[4] = Solubility of the compound in DMEM medium at > 30 uM; format: physicochemical

Chain of E3 ubiquitin-protein ligase Mdm2 (Q00987 whole entry): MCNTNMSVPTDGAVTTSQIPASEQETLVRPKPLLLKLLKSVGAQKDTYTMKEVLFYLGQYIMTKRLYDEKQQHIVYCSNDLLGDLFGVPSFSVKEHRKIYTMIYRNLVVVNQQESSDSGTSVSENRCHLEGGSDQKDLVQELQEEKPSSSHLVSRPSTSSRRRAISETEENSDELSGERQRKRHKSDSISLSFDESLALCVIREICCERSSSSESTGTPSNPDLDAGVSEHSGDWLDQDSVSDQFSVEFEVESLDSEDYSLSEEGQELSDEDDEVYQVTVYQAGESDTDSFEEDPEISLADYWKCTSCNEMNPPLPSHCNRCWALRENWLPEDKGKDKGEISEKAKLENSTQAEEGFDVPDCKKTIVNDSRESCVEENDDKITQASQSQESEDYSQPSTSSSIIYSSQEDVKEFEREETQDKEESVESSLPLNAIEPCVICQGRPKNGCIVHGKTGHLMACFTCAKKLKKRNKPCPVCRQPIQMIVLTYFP

Structure (SMILES)	pEC50 [1]	pIC50 [2]	pIC50 [3]	solubility [4]
CC[C@H](C)[C@H](NC(=O)[C@H](Cc1ccccc1)NC(=O)[C@H](CSSc1ncccc1[N+](=O)[O-])NC(=O)OC(C)(C)C)C(=O)N[C@@H](CCCNC(=N)NS(=O)(=O)c1c(C)cc(C)cc1C)C(=O)OC (Boc-C(Npys)FIR(Mts)-OMe)	4.86	4.38	4.65	–
COc1ccc(COC(=O)N[C@@H](C)C(=O)N[C@@H](CCC(=O)OCc2ccccc2)C(=O)N[C@@H](CC(C)C)C(=O)N[C@H](C(=O)N[C@@H](CC(=O)OC2CCCCCC2)C(=O)N[C@@H](C)C(=O)NN)C(C)C)cc1 (X1-AE(OBn)LVD(X2)A-NHNH2)	< 4.52	4.28	4.67	Insoluble
COc1ccc(COC(=O)N[C@H](C(=O)N[C@@H](CCC(C)=O)C(=O)N[C@@H](Cc2cn(S(=O)(=O)c3c(C)cc(C)cc3C)c3ccccc23)C(=O)N[C@@H](CC(C)C)C(=O)NN)C(C)C)cc1	< 4.52	4.49	5.07	Insoluble
